Results on one compound are retold here after PMC4260654 (Cell host & microbe, 2014).

Structures are written as SMILES.

One test concerns the target T1, CLOSPO_02083 (Clostridium sporogenes, UniProt J7SZ64).
T1 sequence (J7SZ64 1-417): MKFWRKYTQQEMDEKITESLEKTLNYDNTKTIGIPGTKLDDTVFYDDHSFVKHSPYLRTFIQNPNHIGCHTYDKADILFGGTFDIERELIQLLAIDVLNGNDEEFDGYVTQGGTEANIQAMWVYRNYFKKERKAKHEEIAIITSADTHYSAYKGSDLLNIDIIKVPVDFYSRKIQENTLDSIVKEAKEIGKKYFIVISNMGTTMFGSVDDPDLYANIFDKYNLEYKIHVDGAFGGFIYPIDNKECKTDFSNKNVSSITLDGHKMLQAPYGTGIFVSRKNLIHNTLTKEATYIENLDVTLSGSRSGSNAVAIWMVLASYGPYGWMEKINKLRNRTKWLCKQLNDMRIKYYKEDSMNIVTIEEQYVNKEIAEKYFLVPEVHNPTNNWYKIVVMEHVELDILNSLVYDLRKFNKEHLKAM
As to the kind of experiment: progress curves of tryptamine production by HPLC, kobs vs [I]. The test is classed as biochemical. Conditions: read-out: Ki.

A further test concerns the target RUMGNA_01526 (Mediterraneibacter gnavus, UniProt A7B1V0). As to the kind of experiment: X-ray crystal structure at […] Å. It is filed as biochemical. Conditions: read-out: Ki.

With `NC(CF)(Cc1c[nH]c2ccccc12)C(=O)O` (stereo in doubt) [I, (S)-α-FMT], the figures for the KI (inactivation) on CLOSPO_02083 and on RUMGNA_01526 were 0.2 µM and 178 µM, respectively.
